Like-named read-outs stand apart in the source and are kept apart here.
Columns and labels:
SARS-CoV-2 [1] = assay type: cell-based; conditions: CaCo-2 cells infected SARS-CoV-2 (MOI 0.1); 0.098-100 μM, 24 h
LPS induced PMBC cells = experiment: LPS induced cytokine expression in PBMC; assay type: cell-based, human; conditions: 10 μg/ml
Text: In order to check what concentration of ATR-002 would be necessary for cytokine reduction, the amounts of IP10, TNF-alpha and MCP-1 expression was studied in LPS induced PMBC cells after ATR-002 treatment.

[2] = test system: MxA and IL8 mRNA expression; experiment: poly (I:C) stimulation of A549 cells, MxA and IL8 mRNA; conditions: A549, 100 ng/ml poly (I:C), 24 h
[3] = test system: cytokine & chemokine gene expression in lungs; experiment: Acute lung injury (ALI) mouse model, LPS induced cytokine and chemokine gene expression; assay type: in vivo; conditions: LPS 5 mg/kg i.p.; 25 mg/kg i.p. 1 h post stimulation; 6 h post treatment
MCP-1 = MCP-1 in SARS-CoV-2 infected CaCo2 cells; assay type: cell-based, Homo sapiens; conditions: high amount necessary
[4] = human, in vivo
Protocol: Specifically, as described previously, in Phase I clinical studies PD-0184264 was administered with a starting dose of 100 mg and up to three escalation steps in seven arms, following a single ascending dose/multiple ascending dose (SAD/MAD) regime. Administration scheme was one dose PD-0184264, escalating 100 mg to 900 mg (SAD), followed by seven doses PD-0184264, escalating 100 mg to 600 mg QD over seven days (MAD).

SARS-CoV-2 [5] = experiment: SARS-CoV-2 Syrian hamster infection model; conditions: for reduction of progeny virus in throat swabs (TCID50): 100 mg/kg then 75 mg/kg once daily oral; for reduction of progeny virus in throat swabs (TCID50) / reduction of viral load in throat swabs (PCR): day 3 p.i.; for tolerability, weight loss, adverse effects: compared to vehicle
SARS-CoV-2 (FI) [6] = assay type: cell-based
[7] = test system: VSV pseudotype virus carrying the SARS-CoV-2 Spike protein; assay type: cell-based
[8] = test system: peripheral blood mononuclear cells (PBMC's); experiment: T-Cell Inflammation Inhibition Assay (ConA Stimulation); assay type: cell-based, human; conditions: ATR-002 100, 50, 25 μM, Dexamethasone 100 nM, 24 h
pERK1/2 = experiment: Wes analysis of ERK phosphorylation in SARS-CoV-2 infected Caco-2 cells; assay type: cell-based, Homo sapiens; conditions: CaCo-2 cells infected SARS-CoV-2 (MOI 0.1); 0.098-100 μM, 24 h
Protocol: For the Virus yield reduction assay a 24-well plate (Greiner Bio-One, Cat. 662-160) with 95% confluent Caco-2 cells was prepared. The wells were washed once with Caco-2 infection medium DMEM (Gibco, Cat. 41965-039) supplemented with 5% FCS (Capricorn, Cat. FBS-12A), 1% Penicillin/Streptomycin, (Sigma Aldrich, Cat. P4333) and 1% Non-essential amino acids (NEAA) (Merck, Cat. K 0293). Cells were infected with SARS-CoV-2 (MOI 0.1) for 1 h in 200 μL Caco-2 infection medium per well. Afterwards the Virus inoculum was removed completely and cells were treated with 1 mL per well with different concentrations of ATR-002 (100 μM, 50 μM, 25 μM, 12.5 μM, 6.25 μM, 3.125 μM, 1.56 μM, 0.78 μM, 0.39 μM, 0.195 μM, 0.098 μM, 0 μM) in Caco-2 infection medium with 1% DMSO for 24 h at 37° C., 5% CO2. […]
Wes™ capillary electrophoresis by ProteinSimple® was used to identify and quantify pERK1/2, ERK1/2 and SARS-CoV-2 Nucleoprotein. Cell lysates were diluted with 0.1×Sample Buffer (ProteinSimple, Abingdon, Oxford, UK) to approximately 50 ng total protein per lane and analyzed using specific antibodies. […] The anti-rabbit secondary antibody (ProteinSimple, Cat. DM-001) and anti-mouse secondary antibody (ProteinSimple, Cat. DM-002) and all other reagents for WES analysis were also purchased from ProteinSimple and were ready to use.

[9] = test system: peripheral blood mononuclear cells (PBMC's); experiment: T-cell Inflammation Inhibition Assay (Anti-CD3 Stimulation); assay type: cell-based, human; conditions: ATR-002 100, 50, 25 μM, Dexamethasone 100 nM, 24 h
SARS-CoV-2 (FI) [10] = assay type: cell-based; remark: listed apart in the source
[11] = test system: SARS-CoV-2 viral gene RdRP; assay type: cell-based; conditions: Vero cells, MOI 0.01, 50 μM, 24, 36 and 48 hpi
[12] = treatment start 4 hours p.i., day 4 p.i.
[13] = treatment start 24 hours p.i., day 4 p.i.

## O=C(O)c1ccc(F)c(F)c1Nc1ccc(I)cc1Cl [ATR-002, 2-(2-chloro-4-iodophenylamino)-N-3,4-difluoro benzoic acid]
SARS-CoV-2 [1]
  inhibition of SARS-CoV-2 (virus titer): seen at concentrations of 50 and 100 μM
  inhibition of nucleocapsid protein (viral marker): seen at concentrations of 50 and 100 μM
LPS induced PMBC cells; LPS induced PBMC
  IP10 expression: reduced
  TNF-alpha expression: reduced
LPS induced PMBC cells; PBMC, human PBMCs, read-out: inhibition of LPS induced MCP-1
  inhibition at 10 µg/mL: > 90%
[2]
  MxA mRNA expression (anti-viral interferon system): constant expression of MxA mRNA
[2]; even low concentrations
  IL8 mRNA expression: strong reduction
[3]
  IL-1beta gene expression in lung: decrease
  IL-8 gene expression in lung: decrease
  IP-10 gene expression in lung: decrease
  MCP-1 gene expression in lung: decrease
  MIP-1beta gene expression in lung: decrease
  TNF-alpha gene expression in lung: decrease
MCP-1
  MCP-1 expression: able to reduce MCP-1 expression
[4]
  pharmacokinetic profile: supports the intended once-daily regime
  pharmacokinetics exposure, blood levels: maintenance of clinically relevant blood levels
  safety of each dose cohort (Safety Review Committee): considered to be safe
SARS-CoV-2 [5]; treatment start 4 hours p.i.
  reduction of progeny virus in throat swabs (TCID50): 1.1 log 10
  tolerability, weight loss, adverse effects: well tolerated without significant weight loss
  reduction of viral load in throat swabs (PCR): 1.1 log 10
SARS-CoV-2 [5]; [12]
  affected lung tissue (lung lesions, estimated percentage): significantly reduced affected lung tissue
  reduction in infectious virus titers (TCID50/g tissue) in the nasal turbinates: 1.3 log 10
  reduction of viral load in the nasal turbinates (PCR): 1.1 log 10
SARS-CoV-2 [5]; treatment start 24 hours p.i.
  reduction of progeny virus in throat swabs (TCID50): 1.3 log 10
  tolerability, weight loss, adverse effects: well tolerated without significant weight loss
  reduction of viral load in throat swabs (PCR): 1.2 log 10
SARS-CoV-2 [5]; [13]
  affected lung tissue (lung lesions, estimated percentage): significantly reduced affected lung tissue
  infectious virus titers in the nasal turbinates: not the treatment started 24 hours p.i., significantly reduced infectious virus titers
SARS-CoV-2 (FI) [6]; A549-ACE2/TMPRSS2, MOI 0.001, 100 μM
  production of progeny viral particles: reduced the production of progeny viral particles
SARS-CoV-2 (FI) [6]; A549-ACE2/TMPRSS2, MOI 0.01, 100 μM
  production of progeny viral particles: did not affect the production of progeny viral particles
SARS-CoV-2 (FI) [6]; Calu-3, MOI 0.001, 100 μM
  production of progeny viral particles: reduced the production of progeny viral particles
[7]
  internalization of the VSV pseudotype virus (GFP positive cells): reduction in the internalization
[8]
  inhibition of cytokine/chemokine stimulation (summary): significant, dose dependent inhibition
pERK1/2
  inhibition of ERK (phosphorylation): seen at concentrations of 50 and 100 μM
[9]
  inhibition of cytokine/chemokine stimulation (summary): significant, dose dependent inhibition
SARS-CoV-2 (FI) [10]; Calu-3, MOI 0.01, 10-150 μM
  duration of the effect on progeny viral particles: maintained over the total infection time of 72 hours
SARS-CoV-2 (FI) [10]; Calu-3, MOI 0.01, 10-150 μM, 24, 48, 72 h
  production of progeny viral particles: concentration dependent decrease
SARS-CoV-2 (FI) [10]; Calu-3 infected with SARS-CoV-2
  cell damage of infected cells (light microscopy): did not show the characteristic cell damage
[11]
  SARS-CoV-2 viral gene RdRP genome copies: confirmed

From patent US20230241014A1, “MEK-INHIBITORS FOR THE TREATMENT OR PREVENTION OF CORONAVIRUS INFECTIONS AND/OR COVID-19 CYTOKINE STORM” (priority 2020, published 2023)
